Measured values from patent US10202374B2, “6-aryl-4-phenylamino-quinazoline analogs as phosphoinositide-3-kinase inhibitors” (COUNCIL OF SCIENTIFIC & INDUSTRIAL RESEARCH, priority 2014, dated 2019).

Assays:
[1] = test system: Panc-1 (pancreatic cancer) cells; experiment: MTT cytotoxicity assay, Panc-1; format: cell-based; settings: Homo sapiens, 48 h treatment, read-out: Anticancer activity IC50 Panc-1
Experimental: (§1) Compounds proposed in present invention were evaluated for their cytotoxic effect against panel of 5 cancer cell line viz. Panc-1 (pancreatic cancer), MCF-7 (breast cancer), PC-3 (prostate), HL-60 (leukemia) and A-375 (melanoma) using MTT assay. In each well of a 96-well plate, 3×10^3 cells were grown in 100 μL of medium. After 24 h, each test molecules were added to achieve a final concentration of 10 to 0.01 μmol/L, respectively. After 48 h of treatment, 20 μL of 2.5 mg/mL MTT (Organics Research, Inc.) solution in phosphate buffer saline was added to each well. […], supernatant was removed and formazan crystals were dissolved in 200 μL of DMSO. Absorbance was then measured at 570 nm using an absorbance plate reader (Bio-Rad Microplate Reader). Data are expressed as the percentage of viable cells in treated relative to non-treated conditions. Each experiment was repeated thrice and data was expressed as mean±SD of three independent experiments (Mordant, P. et al., Mol. Cancer Ther. 2010, 9, 358).

PI3K-α = PI3K-α (Homo sapiens, UniProt P42336); experiment: PI3K-α assay (ADP-Glo); format: biochemical; settings: for % Inhibition of PI3K-α at 0.5 μM / inhibition at 0.5 µM: preliminary screening; for IC50: read-out: PI3K inhibition IC50 -α
PI3K-α, sequence (P42336 whole entry): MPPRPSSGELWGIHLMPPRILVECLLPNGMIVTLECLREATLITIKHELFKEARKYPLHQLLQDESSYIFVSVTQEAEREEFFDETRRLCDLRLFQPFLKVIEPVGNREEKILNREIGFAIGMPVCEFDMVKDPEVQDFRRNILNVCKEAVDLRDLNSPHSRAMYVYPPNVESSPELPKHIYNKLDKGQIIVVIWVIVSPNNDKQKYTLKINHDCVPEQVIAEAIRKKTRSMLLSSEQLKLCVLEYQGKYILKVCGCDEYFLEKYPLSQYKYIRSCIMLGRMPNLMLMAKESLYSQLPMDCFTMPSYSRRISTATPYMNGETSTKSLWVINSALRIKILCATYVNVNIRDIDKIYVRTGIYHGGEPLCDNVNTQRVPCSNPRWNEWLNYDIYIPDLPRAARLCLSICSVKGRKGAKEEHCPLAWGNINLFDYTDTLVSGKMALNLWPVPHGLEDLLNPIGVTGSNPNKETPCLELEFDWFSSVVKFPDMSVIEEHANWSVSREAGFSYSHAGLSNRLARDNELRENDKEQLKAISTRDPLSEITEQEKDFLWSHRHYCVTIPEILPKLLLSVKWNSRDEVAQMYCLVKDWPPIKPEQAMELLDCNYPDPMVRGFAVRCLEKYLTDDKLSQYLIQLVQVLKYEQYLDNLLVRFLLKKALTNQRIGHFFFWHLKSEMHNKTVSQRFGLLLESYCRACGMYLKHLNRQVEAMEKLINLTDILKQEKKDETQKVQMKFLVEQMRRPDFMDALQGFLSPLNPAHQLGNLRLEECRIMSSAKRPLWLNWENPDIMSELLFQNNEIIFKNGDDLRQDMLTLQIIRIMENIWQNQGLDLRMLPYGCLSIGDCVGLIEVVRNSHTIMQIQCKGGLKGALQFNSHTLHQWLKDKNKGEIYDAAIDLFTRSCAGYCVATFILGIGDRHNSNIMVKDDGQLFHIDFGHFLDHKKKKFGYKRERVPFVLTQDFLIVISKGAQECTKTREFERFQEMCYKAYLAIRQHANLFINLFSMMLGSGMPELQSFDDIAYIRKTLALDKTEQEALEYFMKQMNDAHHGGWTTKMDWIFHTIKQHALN
PI3K-α, sequence (P27986 whole entry partner): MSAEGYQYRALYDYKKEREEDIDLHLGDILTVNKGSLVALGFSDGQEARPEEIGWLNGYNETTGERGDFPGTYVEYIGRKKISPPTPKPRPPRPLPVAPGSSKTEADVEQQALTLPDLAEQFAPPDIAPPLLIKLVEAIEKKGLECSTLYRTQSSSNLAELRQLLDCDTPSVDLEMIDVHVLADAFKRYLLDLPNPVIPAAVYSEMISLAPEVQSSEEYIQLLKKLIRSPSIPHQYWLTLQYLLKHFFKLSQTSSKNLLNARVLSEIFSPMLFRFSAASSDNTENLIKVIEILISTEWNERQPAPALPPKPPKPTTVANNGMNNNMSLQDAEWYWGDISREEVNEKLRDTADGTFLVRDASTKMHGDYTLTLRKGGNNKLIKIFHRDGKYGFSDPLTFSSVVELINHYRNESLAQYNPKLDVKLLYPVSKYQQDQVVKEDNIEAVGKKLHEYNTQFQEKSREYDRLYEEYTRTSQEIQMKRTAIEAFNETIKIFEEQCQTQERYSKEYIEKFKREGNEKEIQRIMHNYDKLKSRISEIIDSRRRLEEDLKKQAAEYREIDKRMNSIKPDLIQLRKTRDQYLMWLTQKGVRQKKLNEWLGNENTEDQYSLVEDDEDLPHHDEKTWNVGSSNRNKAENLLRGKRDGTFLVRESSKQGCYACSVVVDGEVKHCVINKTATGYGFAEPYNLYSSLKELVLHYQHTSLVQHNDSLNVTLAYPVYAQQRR
Experimental: The enzyme is assayed for 80 min after which 20 ul of ADP-Glo reagent is added. After a further incubation of 40 min, 40 ul of Kinase Detection Buffer is added. The assays are incubated for 40 min and then read on PerkinElmer Envision for 1 sec/well.

A-375 (melanoma) cells = experiment: MTT cytotoxicity assay, A375; format: cell-based; settings: Homo sapiens, 48 h treatment, read-out: Anticancer activity IC50 A375
Experimental: as §1

PI3K-γ = PI3K-γ (Homo sapiens, UniProt P48736); experiment: PI3K-γ assay (ADP-Glo); format: biochemical; settings: for IC50: read-out: PI3K inhibition IC50 -γ; for Fold-selectivity for PI3K-α with respect to -γ: α versus γ isoform
PI3K-γ, sequence (P48736 whole entry, species assumed, canonical isoform): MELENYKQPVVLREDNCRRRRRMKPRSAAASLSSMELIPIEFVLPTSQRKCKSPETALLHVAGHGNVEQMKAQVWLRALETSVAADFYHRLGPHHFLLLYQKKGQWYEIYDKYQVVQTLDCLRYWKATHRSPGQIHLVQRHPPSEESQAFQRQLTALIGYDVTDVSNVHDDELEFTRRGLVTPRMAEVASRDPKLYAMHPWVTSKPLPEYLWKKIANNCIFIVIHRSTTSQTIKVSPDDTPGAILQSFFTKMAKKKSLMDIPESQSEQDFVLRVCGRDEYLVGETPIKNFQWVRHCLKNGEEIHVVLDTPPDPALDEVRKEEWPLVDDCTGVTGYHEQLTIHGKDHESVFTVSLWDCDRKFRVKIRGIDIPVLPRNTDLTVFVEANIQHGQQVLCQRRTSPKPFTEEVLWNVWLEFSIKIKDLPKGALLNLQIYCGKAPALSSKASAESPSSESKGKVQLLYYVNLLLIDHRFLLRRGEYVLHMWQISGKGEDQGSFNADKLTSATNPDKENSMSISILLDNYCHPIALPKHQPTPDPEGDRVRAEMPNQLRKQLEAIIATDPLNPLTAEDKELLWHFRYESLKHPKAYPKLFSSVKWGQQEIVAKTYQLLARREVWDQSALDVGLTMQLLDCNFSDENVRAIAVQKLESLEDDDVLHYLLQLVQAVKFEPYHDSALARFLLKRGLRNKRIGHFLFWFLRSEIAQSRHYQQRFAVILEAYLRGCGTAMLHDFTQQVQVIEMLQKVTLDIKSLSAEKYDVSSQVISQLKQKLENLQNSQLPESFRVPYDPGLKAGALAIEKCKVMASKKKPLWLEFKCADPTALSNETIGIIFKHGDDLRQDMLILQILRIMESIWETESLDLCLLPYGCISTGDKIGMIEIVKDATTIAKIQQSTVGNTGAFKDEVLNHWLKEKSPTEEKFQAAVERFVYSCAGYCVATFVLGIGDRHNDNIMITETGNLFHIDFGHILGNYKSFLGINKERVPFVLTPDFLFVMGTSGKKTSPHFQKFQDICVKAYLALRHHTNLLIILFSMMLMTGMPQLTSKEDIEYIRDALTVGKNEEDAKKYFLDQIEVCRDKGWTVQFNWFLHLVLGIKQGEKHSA
Experimental: The enzyme is assayed for 75 min after which 20 ul of ADP-Glo reagent is added. After a further incubation of 40 min, 40 ul of Kinase Detection Buffer is added. The assays are incubated for 40 min and then read on PerkinElmer Envision for 1 sec/well.

PI3K-δ = PI3K-δ (Homo sapiens, UniProt O00329); experiment: PI3K-δ assay (ADP-Glo); format: biochemical; settings: for IC50: read-out: PI3K inhibition IC50 -δ; for Fold-selectivity for PI3K-α with respect to -δ: α versus δ isoform
PI3K-δ, sequence (O00329 whole entry, species assumed, canonical isoform): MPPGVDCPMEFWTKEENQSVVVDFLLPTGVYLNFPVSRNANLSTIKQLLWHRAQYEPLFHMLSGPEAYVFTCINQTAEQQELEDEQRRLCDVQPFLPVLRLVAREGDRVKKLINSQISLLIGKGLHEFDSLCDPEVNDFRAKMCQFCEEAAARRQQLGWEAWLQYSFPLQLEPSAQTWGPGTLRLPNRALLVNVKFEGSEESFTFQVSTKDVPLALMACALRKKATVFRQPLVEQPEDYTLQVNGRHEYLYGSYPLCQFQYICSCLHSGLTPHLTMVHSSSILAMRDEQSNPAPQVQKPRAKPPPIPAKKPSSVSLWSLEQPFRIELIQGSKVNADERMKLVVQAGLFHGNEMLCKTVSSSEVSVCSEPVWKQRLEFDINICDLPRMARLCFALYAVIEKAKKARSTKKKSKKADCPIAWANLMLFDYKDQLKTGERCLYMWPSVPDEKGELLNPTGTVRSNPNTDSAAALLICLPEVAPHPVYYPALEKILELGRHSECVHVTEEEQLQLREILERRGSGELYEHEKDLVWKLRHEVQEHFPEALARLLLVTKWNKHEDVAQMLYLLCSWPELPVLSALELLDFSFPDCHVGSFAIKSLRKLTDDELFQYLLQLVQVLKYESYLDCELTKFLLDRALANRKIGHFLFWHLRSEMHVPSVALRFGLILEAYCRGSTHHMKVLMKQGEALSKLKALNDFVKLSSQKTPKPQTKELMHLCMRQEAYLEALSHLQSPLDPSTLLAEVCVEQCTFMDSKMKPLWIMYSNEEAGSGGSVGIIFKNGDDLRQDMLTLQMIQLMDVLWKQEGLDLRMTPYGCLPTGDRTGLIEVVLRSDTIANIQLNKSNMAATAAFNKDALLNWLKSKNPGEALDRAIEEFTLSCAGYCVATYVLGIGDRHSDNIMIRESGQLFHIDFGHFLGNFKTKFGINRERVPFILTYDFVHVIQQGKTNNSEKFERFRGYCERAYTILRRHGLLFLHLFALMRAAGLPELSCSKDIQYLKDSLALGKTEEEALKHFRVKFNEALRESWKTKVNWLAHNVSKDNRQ
PI3K-δ, sequence (P27986 whole entry partner, species assumed, canonical isoform): as the sequence (P27986 whole entry partner) above
Experimental: Compounds proposed in present invention were evaluated for their inhibitory activity on phosphoinositide-3-kinase-alpha and other isoforms (beta, gamma and delta). […] The protocols used for these bioassays are as follows:
The enzyme is assayed for 120 min after which 20 ul of ADP-Glo reagent is added. After a further incubation of 40 min, 40 ul of Kinase Detection Buffer is added. The assays are incubated for 40 min and then read on PerkinElmer Envision for 1 sec/well.

HL-60 (leukemia) cells = experiment: MTT cytotoxicity assay, HL-60; format: cell-based; settings: Homo sapiens, 48 h treatment, read-out: Anticancer activity IC50 HL-60
Experimental: as §1

[2] = test system: MCF-7 (breast cancer) cells; experiment: MTT cytotoxicity assay, MCF-7; format: cell-based; settings: Homo sapiens, MCF7, 48 h treatment, read-out: Anticancer activity IC50 MCF-7
Experimental: as §1

[3] = test system: PC-3 (prostate cancer) cells; experiment: MTT cytotoxicity assay, PC-3; format: cell-based; settings: Homo sapiens, 48 h treatment, read-out: Anticancer activity IC50 PC-3
Experimental: as §1

PI3K-β = PI3K-β (Homo sapiens, UniProt P42338); experiment: PI3K-β assay (ADP-Glo); format: biochemical; settings: for IC50: read-out: PI3K inhibition IC50 -β; for Fold-selectivity for PI3K-α with respect to -β: α versus β isoform
PI3K-β, sequence (P42338 whole entry, species assumed, canonical isoform): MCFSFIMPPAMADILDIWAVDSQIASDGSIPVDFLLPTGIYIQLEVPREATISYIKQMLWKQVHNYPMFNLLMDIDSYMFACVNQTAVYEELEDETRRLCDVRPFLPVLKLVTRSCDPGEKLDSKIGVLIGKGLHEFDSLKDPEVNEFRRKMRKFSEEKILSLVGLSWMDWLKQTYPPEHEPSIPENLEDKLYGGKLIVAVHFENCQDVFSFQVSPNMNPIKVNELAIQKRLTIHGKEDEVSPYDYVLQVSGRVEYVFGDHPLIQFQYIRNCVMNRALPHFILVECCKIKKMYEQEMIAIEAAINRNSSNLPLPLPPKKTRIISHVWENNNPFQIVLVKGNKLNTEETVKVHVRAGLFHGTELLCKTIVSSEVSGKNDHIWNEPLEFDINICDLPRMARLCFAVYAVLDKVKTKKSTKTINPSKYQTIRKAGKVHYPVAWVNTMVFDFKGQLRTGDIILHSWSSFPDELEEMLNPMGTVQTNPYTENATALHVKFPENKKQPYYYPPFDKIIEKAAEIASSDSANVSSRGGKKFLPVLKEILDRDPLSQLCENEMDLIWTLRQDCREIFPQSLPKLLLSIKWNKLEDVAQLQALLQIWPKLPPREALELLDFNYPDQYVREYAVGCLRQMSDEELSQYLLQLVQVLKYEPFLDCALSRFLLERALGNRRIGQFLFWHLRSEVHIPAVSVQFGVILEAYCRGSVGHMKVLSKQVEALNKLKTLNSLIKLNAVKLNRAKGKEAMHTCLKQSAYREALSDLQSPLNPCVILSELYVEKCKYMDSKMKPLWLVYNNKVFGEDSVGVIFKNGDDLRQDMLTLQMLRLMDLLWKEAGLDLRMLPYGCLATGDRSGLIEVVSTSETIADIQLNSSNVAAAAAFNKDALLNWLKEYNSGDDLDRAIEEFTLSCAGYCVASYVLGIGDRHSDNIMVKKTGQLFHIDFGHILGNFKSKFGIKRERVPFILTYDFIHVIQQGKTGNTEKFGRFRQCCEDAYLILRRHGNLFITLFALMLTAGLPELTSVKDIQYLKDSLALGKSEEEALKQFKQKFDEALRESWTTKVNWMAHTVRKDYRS
PI3K-β, sequence (P27986 whole entry partner, species assumed, canonical isoform): as the sequence (P27986 whole entry partner) above
Experimental: The enzyme is assayed for 60 min after which 20 ul of ADP-Glo reagent is added. After a further incubation of 40 min, 40 ul of kinase detection Buffer is added. The assays are incubated for 40 min and then read on PerkinElmer Envision for 1 sec/well.

Row | Structure (SMILES) | IC50 [1] [µM] | % Inhibition of PI3K-α at 0.5 μM (PI3K-α) [%] | IC50 (PI3K-α) [nM] | IC50 (A-375 (melanoma) cells) [µM] | IC50 (PI3K-γ) [nM] | Fold-selectivity for PI3K-α with respect to -γ (PI3K-γ) [fold] | IC50 (PI3K-δ) [µM] | Fold-selectivity for PI3K-α with respect to -δ (PI3K-δ) [fold] | IC50 (HL-60 (leukemia) cells) [µM] | IC50 [2] [µM] | IC50 [3] [µM] | IC50 (PI3K-β) [µM] | Fold-selectivity for PI3K-α with respect to -β (PI3K-β) [fold] | inhibition at 0.5 µM (PI3K-α) [%]
1 | N#CCc1ccc(Nc2ncnc3ccc(-c4cccc(O)c4)cc23)cc1 [Compound 10, 6-(3-hydroxyphenyl)-4-(4-cyanomethyl)phenylamino quinazoline] | 36 | 69.9 | 115 | 28 | 1840 | 16 | 0.27 | 2.3 | 24 | 15 | 37 | 0.67 | 5.8 | –
2 | N#CCc1ccc(Nc2ncnc3ccc(-c4ccc5c(c4)OCO5)cc23)cc1 [Compound 21, 6-(benzo[d][1,3]dioxol-5-yl)-4-(4-cyanomethyl)phenylamino-quinazoline] | 33 | 48.6 | 321 | 24 | 190 | 0.6 | > 10 | >31.1 | 27 | 34 | 7 | > 10 | >31.1 | > 40
3 | N#CCc1ccc(Nc2ncnc3ccc(-c4cnc5ccccc5c4)cc23)cc1 [Compound 27, 6-(quinolin-3-yl)-4-(4-cyanomethyl)phenylamino-quinazoline] | 90 | – | – | 89 | – | – | – | – | 44 | 32 | 23 | – | – | < 0
4 | N#CCc1ccc(Nc2ncnc3ccc(-c4ccncc4)cc23)cc1 [Compound 28, 6-(pyridin-4-yl)-4-(4-cyanomethyl)phenylamino-quinazoline] | 39 | 45.6 | 704 | 35 | 360 | 0.5 | > 10 | >14.2 | 32 | 32 | 76 | > 10 | >14.2 | > 40
5 | N#CCc1ccc(Nc2ncnc3ccc(-c4cccc5c4oc4ccccc45)cc23)cc1 [Compound 24, 6-(dibenzo(b,d)furan-4-yl)-4-(4-cyanomethyl)phenylamino-quinazoline] | 31 | – | – | 36 | – | – | – | – | 12 | 27 | 16 | – | – | 1.5
6 | N#CCc1ccc(Nc2ncnc3ccc(-c4ccc(OCc5ccc(F)cc5)cc4)cc23)cc1 [Compound 14, 6-(4-fluorobenzyloxyphen-4-yl)-4-(4-cyanomethyl)phenylamino quinazoline] | 13 | – | – | 16 | – | – | – | – | 14 | 12 | 13 | – | – | 11
7 | N#CCc1ccc(Nc2ncnc3ccc(-c4ccc5c(c4)OCCO5)cc23)cc1 [Compound 20, 6-(2,3-dihydrobenzo[b][1,4]dioxin-6-yl)-4-(4-cyanomethyl)phenylamino-quinazoline] | 32 | – | 342 | 27 | 1370 | 4 | > 10 | >29.2 | 21 | 34 | 34 | > 10 | >29.2 | 33
8 | N#CCc1ccc(Nc2ncnc3ccc(-c4cc5ccccc5o4)cc23)cc1 [Compound 22, 6-(benzofuran-2-yl)-4-(4-cyanomethyl)phenylamino-quinazoline] | 28 | – | – | 10 | – | – | – | – | 17 | 9 | 8 | – | – | 29.8
9 | Cc1ccccc1-c1ccc2ncnc(Nc3ccc(CC#N)cc3)c2c1 [Compound 12, 6-(2-methylphenyl)-4-(4-cyanomethyl)phenylamino quinazoline] | 68 | – | – | 32 | – | – | – | – | 36 | > 100 | 38 | – | – | 4.1
10 | N#CCc1ccc(Nc2ncnc3ccc(-c4cccc5c4sc4ccccc45)cc23)cc1 [Compound 25, 6-(dibenzo(b,d)thiophene-4-yl)-4-(4-cyanomethyl)phenylamino-quinazoline] | 33 | – | – | 34 | – | – | – | – | 31 | 34 | 18 | – | – | < 0
11 | N#CCc1ccc(Nc2ncnc3ccc(-c4ccc(-c5ccccc5)cc4)cc23)cc1 [Compound 16, 6-(4-phenylphenyl)-4-(4-cyanomethyl)phenylamino-quinazoline] | 30 | – | – | 13 | – | – | – | – | 16 | 29 | 10 | – | – | < 0
12 | N#CCc1ccc(Nc2ncnc3ccc(-c4ccccc4C=O)cc23)cc1 [Compound 8, 6-(2-formylphenyl)-4-(4-cyanomethyl)phenylamino quinazoline] | 90 | – | – | 39 | – | – | – | – | 42 | 91 | 21 | – | – | 1.3
13 | N#CCc1ccc(Nc2ncnc3ccc(-c4ccc5ccccc5c4)cc23)cc1 [Compound 19, 6-(naphthalen-2-yl)-4-(4-cyanomethyl)phenylamino-quinazoline] | 48 | – | – | 31 | – | – | – | – | 25 | 16 | 22 | – | – | 8.2
14 | CCOc1ccc(-c2ccc(-c3ccc4ncnc(Nc5ccc(CC#N)cc5)c4c3)cc2)cc1 [Compound 17, 6-(4-(4-ethoxyphenyl)phenyl)-4-(4-cyanomethyl)phenylamino-quinazoline] | 33 | – | – | 30 | – | – | – | – | 16 | 26 | 17 | – | – | < 0
15 | N#CCc1ccc(Nc2ncnc3ccc(-c4ccc(F)cc4F)cc23)cc1 [Compound 7, 6-(2,4-difluorophenyl)-4-(4-cyanomethyl)phenylamino quinazoline] | 21 | – | – | 9 | – | – | – | – | 7 | 10 | 28 | – | – | 17
16 | N#CCc1ccc(Nc2ncnc3ccc(-c4ccc(-c5ccccc5)cc4F)cc23)cc1 [Compound 18, 6-(4-phenyl-2-fluorophenyl)-4-(4-cyanomethyl)phenylamino-quinazoline] | 33 | – | – | 32 | – | – | – | – | 16 | 13 | 14 | – | – | 20.3
17 | N#CCc1ccc(Nc2ncnc3ccc(-c4cccc([N+](=O)[O-])c4)cc23)cc1 [Compound 11, 6-(3-nitrophenyl)-4-(4-cyanomethyl)phenylamino quinazoline] | 7 | – | 451 | 23 | 850 | 1.9 | > 10 | >22.2 | 15 | 12 | 29 | > 10 | >22.2 | 38.1
18 | CC(=O)c1ccc(-c2ccc3ncnc(Nc4ccc(CC#N)cc4)c3c2)cc1 [Compound 9, 6-(4-acetylphenyl)-4-(4-cyanomethyl)phenylamino quinazoline] | 13 | – | 270 | 32 | 150 | 0.5 | > 10 | >37 | 28 | 45 | 24 | > 10 | >37 | 44
19 | N#CCc1ccc(Nc2ncnc3ccc(-c4ccccc4)cc23)cc1 [Compound 6, 6-phenyl-4-(4-cyanomethyl)phenylamino quinazoline] | 40 | – | – | 24 | – | – | – | – | 32 | 23 | 27 | – | – | 16.4
20 | N#CCc1ccc(Nc2ncnc3ccc(-c4cc5ccccc5s4)cc23)cc1 [Compound 23, 6-(benzo[b]thiophen-2-yl)-4-(4-cyanomethyl)phenylamino-quinazoline] | 24 | – | – | 14 | – | – | – | – | 14 | 8 | 13 | – | – | 2.7
